Measurements as given in PubChem BioAssay (NCI).
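In this assay, cells in 96-well plates receive the compound at five concentrations for 48 hours. Endpoints are linearly interpolated between the surrounding concentrations. GI50: concentration for 50% inhibition of growth. TGI is the concentration that stops growth completely.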

Tests used:
Assay in all cases: inhibition of tumour cell growth, NCI panel, 48 h
[1] = system: HT29 colon
[2] = system: RXF 393 renal
[3] = system: A549 NSCLC
[4] = system: SK-MEL-28 melanoma
[5] = system: HCT-15 colon
[6] = system: 786-0 renal
[7] = system: A498 renal
[8] = system: KM12 colon
[9] = system: U251 CNS
[10] = system: SK-OV-3 ovarian

## COc1cc(C2c3cc4c(cc3OC(N3CCCC3)C2C)OCO4)cc(OC)c1OC (stereo not given)
[1]
  TGI: 1.22 µM
[2]
  TGI: 2.41 µM
[3]
  TGI: 50.4 µM
[4]
  TGI: > 100 µM
[5]
  TGI: 13 µM
[6]
  TGI: 30 µM
[7]
  TGI: 7.73 µM
[8]
  TGI: 3.68 µM
[9]
  TGI: 13.2 µM
[10]
  TGI: 12.2 µM

## COc1c(CCC[P+](c2ccccc2)(c2ccccc2)c2ccccc2)cc2c(c1OC)OCO2
[1]
  GI50: 1080 nM
  TGI: 18.8 µM
[2]
  GI50: 2050 nM
  TGI: 11.6 µM
[3]
  GI50: 3.7 µM
  TGI: 38.1 µM
[4]
  GI50: 769 nM
  TGI: 14.8 µM
[5]
  GI50: 14.7 µM
  TGI: 71.1 µM
[6]
  GI50: 3.91 µM
  TGI: 26.9 µM
[7]
  GI50: 26.1 nM
  TGI: 3.3 µM
[8]
  GI50: 643 nM
  TGI: 7.48 µM
[9]
  GI50: 1770 nM
  TGI: 19.7 µM
[10]
  GI50: 2.56 µM
  TGI: 8.45 µM

## CCCCCCCCCCCCOC(=S)NCCCC
[1]
  TGI: 38.1 µM
[2]
  TGI: 56.8 µM
[4]
  TGI: 90.9 µM
[5]
  TGI: 37.2 µM
[6]
  TGI: 67.7 µM
[7]
  TGI: 43.1 µM
[8]
  TGI: 41.9 µM
[9]
  TGI: 37.2 µM
[10]
  TGI: 71.1 µM

## COc1ccc(-c2cc(=O)c3cc4c(cc3[nH]2)OCO4)c(OC)c1OC
[1]
  TGI: > 100 µM
[2]
  TGI: > 100 µM
[3]
  TGI: > 100 µM
[4]
  TGI: > 100 µM
[5]
  TGI: > 100 µM
[6]
  TGI: > 100 µM
[8]
  TGI: > 100 µM
[9]
  TGI: > 100 µM
[10]
  TGI: > 100 µM

## CCCc1[nH]nc(CCC(=O)N(Cc2ccccc2)Cc2ccccc2)c1CC
[1]
  TGI: > 100 µM
[2]
  TGI: > 100 µM
[3]
  TGI: > 100 µM
[4]
  TGI: > 100 µM
[5]
  TGI: > 100 µM
[6]
  TGI: > 100 µM
[7]
  TGI: > 100 µM
[8]
  TGI: > 100 µM
[10]
  TGI: > 100 µM

## C1CCSCCCCSCCCCSCCCCSC1
[1]
  TGI: > 100 µM
[2]
  TGI: > 100 µM
[3]
  TGI: > 100 µM
[4]
  TGI: > 100 µM
[5]
  TGI: > 100 µM
[6]
  TGI: > 100 µM
[7]
  TGI: > 100 µM
[8]
  TGI: > 100 µM
[9]
  TGI: > 100 µM
[10]
  TGI: > 100 µM

## c1cc(-c2cn3ccsc3n2)ccn1
[1]
  TGI: > 100 µM
[3]
  TGI: > 100 µM
[4]
  TGI: > 100 µM
[5]
  TGI: > 62 µM
[6]
  TGI: > 100 µM
[7]
  TGI: > 100 µM
[8]
  TGI: > 100 µM
[9]
  TGI: > 100 µM
[10]
  TGI: > 100 µM

## O=CNc1c(Cl)cc2c(c1Cl)Cc1cc([N+](=O)[O-])ccc1-2
[1]
  GI50: 4410 nM
  TGI: > 54.8 µM
[2]
  GI50: 10800 nM
  TGI: 46.4 µM
[3]
  GI50: 4.55 µM
  TGI: > 100 µM
[4]
  GI50: 20200 nM
  TGI: > 100 µM
[5]
  GI50: 3.27 µM
  TGI: > 100 µM
[6]
  GI50: 20 µM
  TGI: > 77 µM
[7]
  GI50: 4070 nM
  TGI: 48.4 µM
[8]
  GI50: 2510 nM
  TGI: 11.9 µM
[9]
  GI50: 5870 nM
  TGI: > 76.3 µM
[10]
  GI50: 9.92 µM
  TGI: 41.5 µM

## C=C1C(=O)O[C@H]2[C@H]1[C@H](OC(=O)/C(C)=C\C)CC(=C)[C@@H]1[C@H](O)[C@H]3O[C@@]3(C)[C@@]12O
[1]
  TGI: > 100 µM
[3]
  TGI: > 100 µM
[4]
  TGI: > 100 µM
[5]
  TGI: > 100 µM
[6]
  TGI: > 100 µM
[8]
  TGI: > 100 µM
[9]
  TGI: > 100 µM
[10]
  TGI: > 100 µM

## Cc1ccc2c(ccc3c[n+]4c5ccccc5ccc4n32)c1
[1]
  GI50: 2080 nM
  TGI: 8.77 µM
[2]
  GI50: 2520 nM
  TGI: 8.81 µM
[3]
  GI50: 0.663 µM
  TGI: 13.7 µM
[4]
  GI50: 1200 nM
  TGI: 3.32 µM
[5]
  GI50: 7.33 µM
  TGI: > 100 µM
[6]
  GI50: 2.56 µM
  TGI: 14.8 µM
[7]
  GI50: 437 nM
  TGI: 5.78 µM
[8]
  GI50: 340 nM
  TGI: 2.09 µM
[9]
  GI50: 361 nM
  TGI: 2.12 µM
[10]
  GI50: 1.76 µM
  TGI: 6.94 µM

## O=C(c1ccc(F)cc1)c1cccc(C(=O)c2ccc(F)cc2)n1
[1]
  TGI: > 100 µM
[2]
  TGI: 33.4 µM
[3]
  TGI: > 100 µM
[4]
  TGI: > 100 µM
[5]
  TGI: > 100 µM
[6]
  TGI: 77.1 µM
[7]
  TGI: > 100 µM
[8]
  TGI: > 100 µM
[9]
  TGI: 44.5 µM
[10]
  TGI: 52.5 µM

## NC(=S)N/N=C(/CC(=O)c1ccccc1)C(=O)Nc1ccc(Cl)c(Cl)c1
[1]
  TGI: > 100 µM
[2]
  TGI: > 100 µM
[3]
  TGI: > 100 µM
[4]
  TGI: > 100 µM
[5]
  TGI: > 100 µM
[6]
  TGI: > 100 µM
[7]
  TGI: > 100 µM
[8]
  TGI: > 100 µM
[9]
  TGI: > 100 µM
[10]
  TGI: > 100 µM

## CCCCCn1c(=N)n(CC(O)COc2cccc(C)c2)c2ccccc21 (stereo not given)
[1]
  GI50: 2730 nM
  TGI: 11.2 µM
[3]
  GI50: 10.2 µM
  TGI: 22.9 µM
[4]
  GI50: 3950 nM
  TGI: 14.7 µM
[5]
  GI50: 4.93 µM
  TGI: 20.3 µM
[6]
  GI50: 7.74 µM
  TGI: 23.3 µM
[7]
  GI50: 1490 nM
  TGI: 13 µM
[8]
  GI50: 4020 nM
  TGI: 15.1 µM
[9]
  GI50: 2110 nM
  TGI: 4.25 µM
[10]
  GI50: 11.8 µM
  TGI: 24.2 µM

## O=C(Cn1ccc(=O)[nH]c1=O)Nc1ccc(C(=O)O)c(O)c1
[1]
  TGI: > 100 µM
[2]
  TGI: > 100 µM
[3]
  TGI: > 100 µM
[4]
  TGI: > 100 µM
[5]
  TGI: > 100 µM
[6]
  TGI: > 100 µM
[7]
  TGI: > 100 µM
[8]
  TGI: > 100 µM
[9]
  TGI: > 100 µM

## CN(C)/C=C/c1nnc([N+](=O)[O-])s1
[1]
  TGI: 14.6 µM
[2]
  TGI: 31.4 µM
[3]
  TGI: 66.4 µM
[5]
  TGI: 32.2 µM
[6]
  TGI: 36.3 µM
[7]
  TGI: 67.6 µM
[8]
  TGI: 29.6 µM
[9]
  TGI: 51.8 µM
[10]
  TGI: 55.2 µM

## CN(C(=O)C12C3C4C5C3C1(C(=O)O)C5C42)C(C)(C)C (stereo not given)
[1]
  TGI: > 100 µM
[3]
  TGI: > 100 µM
[4]
  TGI: > 100 µM
[5]
  TGI: > 100 µM
[6]
  TGI: > 100 µM
[7]
  TGI: > 100 µM
[8]
  TGI: > 100 µM
[9]
  TGI: > 100 µM
[10]
  TGI: > 100 µM

## COC(=O)c1csnn1
[1]
  TGI: > 100 µM
[3]
  TGI: > 100 µM
[4]
  TGI: > 100 µM
[5]
  TGI: > 100 µM
[6]
  TGI: > 100 µM
[8]
  TGI: > 100 µM
[9]
  TGI: > 100 µM
[10]
  TGI: > 100 µM

## Cc1ccc(-c2c(N)[n+]([O-])c3ccccc3[n+]2[O-])cc1
[1]
  TGI: 31.4 µM
[3]
  TGI: 62.3 µM
[4]
  TGI: 20 µM
[5]
  TGI: 15.3 µM
[6]
  TGI: 28.6 µM
[8]
  TGI: 26.7 µM
[9]
  TGI: 27.8 µM
[10]
  TGI: 35.9 µM
